In US20230079107A1, “COMPOSITIONS AND METHODS FOR THE TREATMENT OF HUMAN IMMUNODEFICIENCY VIRUS” (Cidara Therapeutics, Inc., priority 2019, published 2023):
Like-named read-outs stand apart in the source and are kept apart here.

Tests used:
Type in all cases: cell-based
in vitro = experiment: in vitro; parameters: TC50: unit not given beside the values; conditions: human
Description: (§1) In these studies, cytotoxicity was also evaluated (TC50). Test materials were derived by measuring the reduction of the tetrazolium dye XTT (2,3-bis(2-methoxy-4-nitro-5-sulfophenyl)-5-[(phenylamino)carbonyl]-2H-tetrazolium hydroxide). XTT in metabolically active cells is metabolized by the mitochondrial enzyme NADPH oxidase to a soluble formazan product. XTT solution was prepared daily as a stock of 1 mg/mL in RPMI-1640 without additives. Phenazine methosulfate (PMS) solution was prepared at 0.15 mg/mL in DPBS and stored in the dark at −20° C. XTT/PMS stock was prepared immediately before use by adding 40 μL of PMS per mL of XTT solution. 50 μL of XTT/PMS was added to each well of the plate and the plate incubated for 4 hours at 37° C. The 4 hour incubation has been empirically determined to be within the linear response range for XTT dye reduction with the indicated numbers of cells for each assay. The plates were sealed and inverted several times to mix the soluble formazan product and the plate was read at 450 nm (650 nm reference wavelength) with a Molecular Devices SpectraMax Plus 384 96 well plate format spectrophotometer.
as §1, with “Fifty L (50 μL)” for “50 μL”
as §1, with “studies” for “studies,”, “Fifty L (50 μL)” for “50 μL”
(§2) In these studies, cytotoxicity was also evaluated (TC50). Test materials were derived by measuring the reduction of the tetrazolium dye XTT (2,3-bis(2-methoxy-4-nitro-5-sulfophenyl)-5-[(phenylamino)carbonyl]-2H-tetrazolium hydroxide). XTT in metabolically active cells is metabolized by the mitochondrial enzyme NADPH oxidase to a soluble formazan product. XTT solution was prepared daily as a stock of 1 mg/mL in RPMI-1640 without additives.

[1] = target: cell-cell fusion of HeLa-CD4-LTR-β-Gal and HL2/3 cells mediated by gp120 and CD4 interaction (UniProt P04578)
[2] = tested on: HeLa-CD4-LTR-β-Gal and HL2/3 cells (cell viability); experiment: in vitro; parameters: TC50: unit not given beside the values; conditions: Example 36, Table 9, XTT
Description: as §1
as §1, with “Fifty L (50 μL)” for “50 μL”
as §1, with “studies” for “studies,”, “Fifty L (50 μL)” for “50 μL”
as §2

[3] = Example 19, Table 6, Run 2, XTT, read-out: TC50 [μM] Run 2
[4] = Example 11, Table 5, XTT, read-out: TC50 (the source's name)
[5] = Example 19, Table 6, Run 1, XTT, read-out: TC50 [μM] Run 1
[6] = Example 33, Table 7, XTT, read-out: TC50 (nM) (Tox)
[7] = Example 19, Table 6, Run 3, XTT, read-out: TC50 [μM] Run 3

Question: Which results are given for C#CCOCCOCCOCCOCC(O)CNC(=O)c1nc(-c2ncc(OC)c3c(C(=O)C(=O)N4CCC(=C(C#N)c5ccccc5)CC4)c[nH]c23)cs1 (stereo not shown) [Int-4]?
Answer: CC50 (in vitro; [3]): > 10 µM; fusion inhibition activity, in words [1]: highly active

Question: With C#CCOCCOCCNC(=N)NCCNC(=O)c1csc(-c2ncc(OC)c3c(C(=O)C(=O)N4CCN(C(=O)c5ccccc5)CC4)c[nH]c23)n1 [Int-10] as the compound, how does the CC50 (in vitro; [4]) read?
Answer: > 10 µM

Question: And the CC50 (in vitro; [5])?
Answer: > 10 µM

Question: Which CC50 (in vitro; [6]) does the source give for C#CCOCCOCCOCCOCCN1CCN(CCCNC(=O)c2ncn(-c3ncc(OC)c4c(C(=O)C(=O)N5CCC(=C(C#N)c6ccccc6)CC5)c[nH]c34)n2)CC1 [Int-18] here?
Answer: > 0.5 µM

Question: What about the TC50 [2] of the same compound?
Answer: >2000

Question: With COc1cnc(-n2cnc(COCC(=O)NCCOCCOCCOCCOCCOCCON)n2)c2[nH]cc(C(=O)C(=O)N3CCN(C(=O)c4ccccc4)CC3)c12 [Int-6] as the compound, how does the CC50 (in vitro; [4]) read?
Answer: > 0.5 µM

Question: What about the CC50 (in vitro; [5]) of the same compound?
Answer: > 0.5 µM

Question: For C#CCOCCOCCOCCOCCNC(=O)c1cn(-c2ncc(OC)c3c(C(=O)C(=O)N4CCC(=C(C#N)c5ccccc5)CC4)c[nH]c23)nn1 [Int-13], which CC50 (in vitro; [7]) is on record?
Answer: > 10 µM

Question: What does the source list for C#CCOCCOCCOCCOCCC(=O)NCc1ncn(-c2ncc(OC)c3c(C(=O)C(=O)N4CCN(C(=O)c5ccccc5)CC4)c[nH]c23)n1 [Int-7]?
Answer: CC50 (in vitro; [4]): > 0.5 µM; CC50 (in vitro; [5]): > 0.5 µM

Question: For C#CCOCCOCCOCCOCCC(=O)N(CC(=O)NCCOCCOCCOCCOCCOCCOCCOCCOCCOCCOCCOCCOC)CC(=O)NCCn1cc(COCCOCCOCCOCCNC(=O)c2ncn(-c3ncc(OC)c4c(C(=O)C(=O)N5CCC(=C(C#N)c6ccccc6)CC5)c[nH]c34)n2)nn1 [Int-25], which CC50 (in vitro; [6]) is on record?
Answer: > 0.5 µM

Question: What about the TC50 [2] of the same compound?
Answer: >2000

Question: With C#CCOCCOCCOCCOCCNC(=O)c1nc(-c2ncc(OC)c3c(C(=O)C(=O)N4CCC(=C(C#N)c5ccccc5)CC4)c[nH]c23)cs1 [Int-1] as the compound, how does the CC50 (in vitro; [4]) read?
Answer: > 10 µM

Question: What about the CC50 (in vitro; [5]) of the same compound?
Answer: > 10 µM

Question: What does the source list for COc1cc(-c2ccc(/N=N/c3ccc4c(S(=O)(=O)O)cc(S(=O)(=O)O)c(N)c4c3O)c(OC)c2)ccc1/N=N/c1ccc2c(S(=O)(=O)O)cc(S(=O)(=O)O)c(N)c2c1O [CSB, Chicago Sky Blue, reference compound]?
Answer: CC50 (in vitro; [4]): > 10 µM; CC50 (in vitro; [5]): > 10 µM; CC50 (in vitro; [3]): > 10 µM; CC50 (in vitro; [7]): > 10 µM; CC50 (in vitro; [6]): > 10 µM

Question: With C#CCOCCOCCOCCOCCN(CCCO)CCCN(CCCO)CCCNC(=O)c1ncn(-c2ncc(OC)c3c(C(=O)C(=O)N4CCC(=C(C#N)c5ccccc5)CC4)c[nH]c23)n1 [Int-26] as the compound, how does the TC50 [2] read?
Answer: >2000

Question: Which results are given for C#CCOCCOCCOCCOCCNC(=O)COCc1ncn(-c2ncc(OC)c3c(C(=O)C(=O)N4CCN(C(=O)c5ccccc5)CC4)c[nH]c23)n1 [Int-5]?
Answer: CC50 (in vitro; [4]): > 0.5 µM; CC50 (in vitro; [5]): > 0.5 µM

Question: For C#CCOCCOCCOCCOCCC(=O)N(CCCNC(=O)CCOCCNC(=O)c1ncn(-c2ncc(OC)c3c(C(=O)C(=O)N4CCC(=C(C#N)c5ccccc5)CC4)c[nH]c23)n1)C(CO)(CO)CO [Int-12], which CC50 (in vitro; [7]) is on record?
Answer: > 10 µM

Question: Which CC50 (in vitro; [7]) does the source give for C#CCOCCOCCOCCOCCN1CCN(CCNC(=O)c2ncn(-c3ncc(OC)c4c(C(=O)C(=O)N5CCC(=C(C#N)c6ccccc6)CC5)c[nH]c34)n2)CC1 [Int-16] here?
Answer: > 10 µM

Question: With C#CCOCCOCCOCCOCCC(=O)N[C@@H](CS(=O)(=O)O)C(=O)N1CCN(CCNC(=O)c2ncn(-c3ncc(OC)c4c(C(=O)C(=O)N5CCC(=C(C#N)c6ccccc6)CC5)c[nH]c34)n2)CC1 [Int-14] as the compound, how does the CC50 (in vitro; [7]) read?
Answer: > 10 µM

Question: With C#CCOCCOCCOCCOCCOc1cnc(-n2cnc(C)n2)c2[nH]cc(C(=O)C(=O)N3CCN(C(=O)c4ccccc4)CC3)c12 [Int-8] as the compound, how does the CC50 (in vitro; [4]) read?
Answer: > 10 µM

Question: What about the CC50 (in vitro; [5]) of the same compound?
Answer: > 10 µM

Question: Which CC50 (in vitro; [5]) does the source give for C#CCOCCOCCOCCC1CCN(CCNC(=O)c2ncn(-c3ncc(OC)c4c(C(=O)C(=O)N5CCC(=C(C#N)c6ccccc6)CC5)c[nH]c34)n2)CC1 [Int-11] here?
Answer: > 10 µM

Question: For C#CCOCCOCCOCCOCCNC(=O)c1ncn(-c2ncc(OC)c3c(C(=O)C(=O)N4CCN(C(=O)c5ccccc5)CC4)c[nH]c23)n1 [Int-20], which CC50 (in vitro; [6]) is on record?
Answer: > 0.5 µM

Question: Which CC50 (in vitro; [6]) does the source give for C#CCOCCOCCOCCOCCN1CCN(CCCN2CCN(CCNC(=O)c3ncn(-c4ncc(OC)c5c(C(=O)C(=O)N6CCC(=C(C#N)c7ccccc7)CC6)c[nH]c45)n3)CC2)CC1 [Int-19] here?
Answer: > 0.5 µM

Question: For C#CCOCCOCCOCCOCCN1CCN(CCCNC(=O)c2ncn(-c3ncc(OC)c4c(C(=O)C(=O)N5CCC(=C(C#N)c6ccccn6)CC5)c[nH]c34)n2)CC1 [Int-27], which TC50 [2] is on record?
Answer: >2000

Question: Which results are given for C#CCOCCOCCOCCOCCNC(=O)c1ncn(-c2ncc(OC)c3c(C(=O)C(=O)N4CCC(=C(C#N)c5ccccc5)CC4)c[nH]c23)n1 [Int-2]?
Answer: CC50 (in vitro; [3]): > 10 µM; CC50 (in vitro; [7]): > 10 µM; fusion inhibition activity, in words [1]: highly active

Question: Which CC50 (in vitro; [4]) does the source give for C#CCOCCOCCOCCOCCNC(=O)c1csc(-c2ncc(OC)c3c(C(=O)C(=O)N4CCN(C(=O)c5ccccc5)CC4)c[nH]c23)n1 [Int-9] here?
Answer: > 10 µM

Question: What about the CC50 (in vitro; [5]) of the same compound?
Answer: > 10 µM

Question: Which CC50 (in vitro; [6]) does the source give for C#CCOCCOCCOCCOCCN1CCN(CCCN2CCN(CCCNC(=O)c3ncn(-c4ncc(OC)c5c(C(=O)C(=O)N6CCC(=C(C#N)c7ccccc7)CC6)c[nH]c45)n3)CC2)CC1 [Int-22] here?
Answer: > 0.5 µM

Question: And the TC50 [2]?
Answer: >2000

Question: With C#CCOCCOCCOCCOCCC(=O)N(CCCNC(=O)c1ncn(-c2ncc(OC)c3c(C(=O)C(=O)N4CCC(=C(C#N)c5ccccc5)CC4)c[nH]c23)n1)C(CO)(CO)CO [Int-17] as the compound, how does the CC50 (in vitro; [7]) read?
Answer: > 10 µM

Question: What about the CC50 (in vitro; [6]) of the same compound?
Answer: > 0.5 µM

Question: Which CC50 (in vitro; [4]) does the source give for C#CCOCCOCCNC(=N)NCCNC(=O)c1csc(-c2ncc(OC)c3c(C(=O)C(=O)N4CCC(=C(C#N)c5ccccc5)CC4)c[nH]c23)n1 [Int-3] here?
Answer: > 10 µM

Question: And the CC50 (in vitro; [5])?
Answer: > 10 µM

Question: Which CC50 (in vitro; [7]) does the source give for C#CCOCCOCCOCCOCCC(=O)N(CCCNC(=O)c1ncn(-c2ncc(OC)c3c(C(=O)C(=O)N4CCC(=C(C#N)c5ccccc5)CC4)c[nH]c23)n1)CCS(=O)(=O)O [Int-15] here?
Answer: > 10 µM

Question: Which results are given for enfuvirtide?
Answer: CC50 (in vitro; [6]): > 1 µM; TC50 [2]: >1,000
